Laboratory results reported in paper PMC4549712, “Inhibition of human GLUT1 and GLUT5 by plant carbohydrate products; insights into transport specificity” (Scientific Reports, 2015).
Residue numbers refer to the chain shown, from its start. Values joined by “and” are separate entries in the source; they are usually repeats but may differ in a detail not shown here. Identical values can stand only once.

Key:
GLUT5A396W = target: T1, GLUT5A396W (Homo sapiens, UniProt P22732, A396W); assay: entrance counter-flow transport assay, fructose transport by GLUT5A396W proteoliposomes; type: biochemical
T1 construct: Full length DNA was subcloned into pFastBac1 (Life Technologies) vector with a N-terminal hexahistidine tag; hexahistidine (thrombin-cleavable) (N, cleaved yes); made in house; host or cells: Sf21 insect cells (baculovirus, pFastBac1)
T1 sequence (P22732 1-501 A396W): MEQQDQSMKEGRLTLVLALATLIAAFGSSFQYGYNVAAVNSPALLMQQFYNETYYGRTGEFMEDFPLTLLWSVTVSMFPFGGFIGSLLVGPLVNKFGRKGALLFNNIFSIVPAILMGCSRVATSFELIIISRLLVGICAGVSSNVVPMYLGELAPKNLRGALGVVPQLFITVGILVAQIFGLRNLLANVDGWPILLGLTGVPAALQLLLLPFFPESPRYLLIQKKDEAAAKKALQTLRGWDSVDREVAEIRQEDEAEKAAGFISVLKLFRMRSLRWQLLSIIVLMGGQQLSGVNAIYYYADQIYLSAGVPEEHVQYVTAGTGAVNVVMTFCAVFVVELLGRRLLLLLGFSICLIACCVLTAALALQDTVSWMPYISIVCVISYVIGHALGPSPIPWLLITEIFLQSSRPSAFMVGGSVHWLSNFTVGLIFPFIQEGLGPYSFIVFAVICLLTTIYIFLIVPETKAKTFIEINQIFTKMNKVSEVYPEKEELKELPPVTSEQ
Description: We expressed and purified GLUT1W388A and GLUT5A396W. Purified mutant proteins were reconstituted into proteoliposomes and activity was determined by entrance counter-flow transport assay.
cDNAs of GLUT1 and GLUT5 were purchased from Open Biosystems (GE Healthcare). Full length DNA was subcloned into pFastBac1 (Life Technologies) vector with a N-terminal hexahistidine tag. Bacmids were generated in DH10Bac E. coli cells (Life Technologies). Baculoviruses were produced using Cellfectin II Reagent and amplified in Sf21 insect cells (Life Technologies). Cells were maintained at 26 °C, and P1 (10^6 pfu/mL) was collected from infected cells after 72 hours. Sf21 cells were propagated in HyClone SFX-Insect media (GE Healthcare), supplemented with 5% fetal bovine serum (Biowest), antibiotics (100 units/mL Penicillin G and 100 μg/mL streptomycin sulfate) and amphotericin B (2.5 μg/mL). For recombinant protein expression, Sf21 cells in suspension culture at 2 × 10^6 cells/ml were infected with P3 viral stock (10^8 pfu/mL), at an MOI of 1.0 pfu/cell. Four days after viral infection, cells from 2 L culture were collected by centrifugation at 2,000 × g and 25 °C. […]

human GLUT5 = target: T2, human GLUT5 (Homo sapiens, UniProt P22732); assay: entrance counter-flow transport assay, GLUT5-mediated fructose transport in proteoliposomes; type: biochemical
T2 construct: Full length DNA was subcloned into pFastBac1 (Life Technologies) vector with a N-terminal hexahistidine tag; hexahistidine (thrombin-cleavable) (N, cleaved yes); made in house; host or cells: Sf21 insect cells (baculovirus, pFastBac1)
T2 sequence (P22732 1-501): T1 sequence (P22732 1-501 A396W) with W396A
Source text: Human GLUT1 and GLUT5 were expressed recombinantly in insect cell culture. The purified proteins were reconstituted into proteoliposomes. To measure the inhibition of GLUT1 or GLUT5 transport activity we used entrance counter-flow transport assay.
Proteoliposomes were generated according to the protocol from[30] with minor modifications. Liposomes were produced from a 95/5% (w/w) mix of soy phosphatidylcholine and cholesterol (Avanti Polar Lipids). Briefly, hexane-washed and vacuum-dried lipids were resuspended to 20 mg/ml in 100 mM KPi (pH 7.5), and then subjected to 11 freeze-and-thaw cycles in liquid nitrogen and room temperature water. The lipid mixture was extruded through a 0.1 μm polycarbonate filter. Prepared liposomes were destabilized with 4 mM Triton X-100 and mixed with purified protein in a 100:1 (w/w) ratio in 100 mM KPi (pH 7.5) 20% (v/v) glycerol, 200 mM (glucose or fructose). Detergent was removed by several additions of SM2 BioBeads (BioRad) and incubated overnight at 4 °C. After filtering out the BioBeads, proteoliposomes were diluted with 100 mM KPi (pH 7.5) 200 mM (glucose or fructose), and then collected by ultracentrifugation, at 200,000 × g and 4 °C, for 1 hour. The proteoliposomes pellet was resuspended in the above buffer so that O.D.600nm was ~30.
To measure hexose transport, we utilized entrance counter-flow assay. Transport was performed in a volume of 100 μL of 100 mM KPi (pH 7.5) buffer containing radioactive ^14C-hexose (4 μM fructose or 5 μM glucose) with inhibitors added before initiation of transport. […] The reaction was started by the addition of 3 μL concentrated proteoliposomes to the above solution and incubated at room temperature; the transport was stopped after one minute by addition of ice-chilled quench buffer [100 mM KPi (pH 5.5) and 100 mM LiCl]. The solution was filtered through a 0.4 μm pore size cellulose nitrate membrane filter (Whatman), and the filter was washed three times with quench buffer. The membrane filter was placed into a vial filled with BioSafe II scintillation liquid (Research Products International Corp.), and radioactivity was quantified with LS 6500 scintillation counter (Beckman). […] Data is presented as relative activity normalized to radioactivity of no inhibitor added as 100% and empty proteoliposomes as 0%. Kinetic parameters were fitted by nonlinear algorithm plots using Prism (GraphPad Software).

C=C1C[C@@]23CC[C@H]4[C@@](C)(CCC[C@@]4(C)C(=O)O[C@@H]4O[C@H](CO)[C@@H](O)[C@H](O)[C@H]4O)[C@@H]2CC[C@]1(O[C@@H]1O[C@H](CO)[C@@H](O)[C@H](O)[C@H]1O)C3 [Rub, Rubusoside]
IC50 (GLUT5A396W): 10.3 mM and 10 mM
inhibition of GLUT5 fructose transport activity (human GLUT5; added at 20 mM): reducing activity to background levels
IC50 (human GLUT5; entrance counter-flow): 6.7 mM and ~5 mM and 5 mM
